Where “and” joins values, the source holds several entries; their conditions need not be identical. Equal values may be shown once.
Tests used:
[1] = tested on: protein translation in HEK293T cells; experiment: Metabolic labeling: [35S] methionine incorporation in HEK293T cells; type: cell-based; details: IPA 1 μM
Protocol: HEK293T cells (500,000 cells/ml) were plated in 12-well flat bottom culture cluster dishes (Costar, Fisher Scientific) 24 hr before the experiment. IPA (1 μM), or a combination of IPA with GSK2606414 (TRC inc. […] Cells lysates were kept on ice for 30 min before high-speed centrifugation followed by denaturation at 95°C. The samples were resolved on an SDS-polyacrylamide gel, which were then stained with Coomassie blue to ascertain protein loading. […] The resulting autoradiograms were quantified using ImageQuant software (Molecular Dynamics).

[2] = tested on: mouse embryonic fibroblast (MEFs) cells; experiment: XBP1 mRNA splicing, PERK shift and eIF2α phosphorylation in WT, Ire1−/− and Perk−/− MEFs; type: cell-based; details: IPA 1 µM, 4 hr
Source text: PERK activation by IPA could be due to direct binding of IPA to PERK, or it could be caused by indirect activation of PERK by IRE1. If the latter were true, IPA should not trigger PERK activation in the absence of IRE1. To test this notion, we treated mouse embryonic fibroblasts (MEFs) derived from Ire1α^−/− and Perk^−/− knock-out mice with IPA and monitored XBP1 mRNA splicing, and PERK and eIF2α phosphorylation.
Cells were lysed and total RNA was collected (Total RNA Kit 1, EZ-RNA, EZNA [USA]). PolyA^+ mRNA was reverse transcribed with M-MLV (Invitrogen), and the resulting cDNA was used as a template for PCR amplification across the fragment of XBP1 cDNA containing the intron. Primers used to amplify human XBP1: 5′-[…]-3′ and 5′-[…]-3′. To amplify murine XBP1: 5′-[…]-3′ and 5′-[…]-3′. PCR conditions were as follows: 95°C for 5 min, 95°C for 1 min, 58°C for 30 s, 72°C for 30 s, and 72°C for 5 min, with 20 cycles of amplification. PCR products were resolved on a 2.5% agarose tris-acetate EDTA (TAE) gel. As previously reported, a hybrid amplicon species consisting of unspliced Xbp-1 annealed to spliced Xbp-1 can also be produced through this PCR reaction and was visible as a slower migrating band above the unspliced amplicon. The same cDNA was used as template for PCR of DERLIN-3 and HERPUD1, both ATF6 targets, and GAPDH, which was used as loading control. Primers used included the following: DERLIN-3, 5′-[…]-3′ and 5′-[…]-3′; HERPUD1-1, 5′-[…]-3′ and 5′-[…]-3′; GAPDH, 5′-[…]-3′ and 5′-[…]-3′. PCR conditions were: 95°C × 5 min, 95°C × 1 min, 56°C × 30 s, 72°C for 30 s for 25 cycles, 72°C for 5 min at 4°C. PCR products were resolved on a 2% agarose TAE gel.
Cells were lysed in 50 mM Tris-HCl, 2% SDS, 10% glycerol, 0.01% bromophenol blue, pH 6.8 supplemented with phosphatase inhibitors (Sigma) and protease inhibitors (Roche). 30 μg to 50 μg of total protein was loaded on each lane of 8% or 10% SDS-PAGE gels. The separated proteins were then transferred onto nitrocellulose membranes for immunoblotting. The following antibodies and dilutions were used: anti-β-actin 1:10,000 (A5441, Sigma), anti-total PERK at 1:1000 (C33E10, Cell Signaling Technology), anti-phospho eIF2α at 1:1000 (3597S, Cell Signaling Technology), anti-total eIF2α at 1:1000 (L57A5, Cell Signaling Technology). After overnight incubation with primary antibody, membranes were washed in PBS with 0.05% Tween and incubated in HRP-coupled secondary antibody anti-rabbit (611–1302, Rockland) or anti-mouse (610–1302, Rockland) diluted at 1:5000 in wash buffer. Immunoreactive bands were detected by chemiluminescence.

[3] = target: IRE1α-KR43 (Homo sapiens, UniProt O75460); experiment: FRET-based RNA cleavage assay (fluorescent HP17 substrate) of IRE1α-KR43 RNase activity
[4] = tested on: HEK293T cells; experiment: HEK293T cell viability (CellTiter-Blue, 24 hr); type: cell-based; details: 24 hr
Protocol: HEK293T cells were grown in DMEM (Sigma) complete media containing 10% FBS, 10 units/ml penicillin (Invitrogen), and 10 μg/ml streptomycin (Invitrogen). Cells were plated at a density of 30,000 cells per well in 96-well black plates with clear flat bottoms (Corning, Sigma-Aldrich) 24 hr before the experiment. A 12-point semi-logarithmic dilution series of compounds was made starting at 30 μM not to exceed 0.1% DMSO after final dilution into the growth media. Viability assays were conducted over the course of 24 hr. Cell viability was determined using CellTiter-Blue (Promega) following the manufacturer's instructions. […] Experiments were done in triplicate, and mean values were computed for each data point.

[5] = target: T1, GST-PERK kinase domain (580–1077 aa) (Mus musculus, UniProt Q9Z2B5); experiment: In vitro GST-PERK kinase assay (eIF2α phosphorylation with γ-[32P]-ATP)
T1 sequence (Q9Z2B5 580-1077): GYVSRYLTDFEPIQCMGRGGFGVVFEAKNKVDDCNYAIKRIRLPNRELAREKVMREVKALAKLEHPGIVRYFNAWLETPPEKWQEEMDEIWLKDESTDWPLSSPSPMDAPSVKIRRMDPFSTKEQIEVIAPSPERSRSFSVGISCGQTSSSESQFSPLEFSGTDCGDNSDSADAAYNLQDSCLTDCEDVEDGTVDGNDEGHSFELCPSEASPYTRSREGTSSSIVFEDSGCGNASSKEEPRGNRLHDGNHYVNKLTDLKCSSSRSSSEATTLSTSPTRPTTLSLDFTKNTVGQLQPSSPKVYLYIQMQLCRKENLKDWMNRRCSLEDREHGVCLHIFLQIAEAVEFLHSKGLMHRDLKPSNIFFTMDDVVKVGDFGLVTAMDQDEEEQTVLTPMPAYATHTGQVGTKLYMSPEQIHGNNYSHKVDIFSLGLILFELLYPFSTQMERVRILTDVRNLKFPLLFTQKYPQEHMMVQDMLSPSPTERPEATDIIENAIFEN

Chain of IRE1α-KR43 (O75460 465-977 limits assumed): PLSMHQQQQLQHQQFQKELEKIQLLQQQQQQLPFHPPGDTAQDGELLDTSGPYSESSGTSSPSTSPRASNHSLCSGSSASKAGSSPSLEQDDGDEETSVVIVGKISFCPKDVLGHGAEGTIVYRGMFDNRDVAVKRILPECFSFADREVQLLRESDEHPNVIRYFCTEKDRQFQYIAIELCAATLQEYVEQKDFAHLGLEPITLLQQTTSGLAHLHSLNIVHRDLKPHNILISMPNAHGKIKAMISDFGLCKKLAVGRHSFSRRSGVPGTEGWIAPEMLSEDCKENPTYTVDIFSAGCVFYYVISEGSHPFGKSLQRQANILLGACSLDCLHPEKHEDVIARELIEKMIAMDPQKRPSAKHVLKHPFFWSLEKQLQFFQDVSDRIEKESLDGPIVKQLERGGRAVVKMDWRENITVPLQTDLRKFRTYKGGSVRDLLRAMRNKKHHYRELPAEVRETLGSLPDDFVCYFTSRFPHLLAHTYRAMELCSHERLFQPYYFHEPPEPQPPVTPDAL

CSc1ccc(NC(=O)Nc2ccc(Nc3nccc(Nc4cc(C5CC5)[nH]n4)n3)cc2)cc1 [IPA]
incorporation of [35S]-methionine into newly synthesized proteins [1]: impaired | PERK phosphorylation and eIF2α phosphorylation in Ire1α−/− MEFs ([2]; Ire1α−/− MEFs): pronounced PERK phosphorylation | XBP1 mRNA splicing in Ire1α−/− MEFs ([2]; Ire1α−/− MEFs): no IPA-induced XBP1 mRNA splicing | eIF2α phosphorylation in Perk−/− MEFs ([2]; Perk−/− MEFs): only a trace amount of IPA-induced eIF2α phosphorylation | UPR branch activation in wild-type MEFs ([2]; WT MEFs): induced both the PERK and IRE1 branches of the UPR | EC50 [3]: 0.36 µM | LD50 cell viability in the presence of 1 μM GSK ([4]; IPA + 1 μM GSK2606414): 6.21 µM and 6.2 µM | LD50 cell viability ([4]; IPA alone): 0.82 µM and 0.8 µM | IC50 [5]: 2.8 µM

From publication PMC4436593, “Endoplasmic reticulum stress-independent activation of unfolded protein response kinases by a small molecule ATP-mimic” (eLife, 2015)
